Data: patent US20150329467A1, “FLUORINE ATOM-CONTAINING PHENOL COMPOUND” (FUJIFILM CORPORATION, priority 2012, published 2015)
Entries after “also recorded” stand apart in the source; their conditions may differ.

Assay: Solubility check: coated film of Cytop CTL-809M fluororesin solution observed by optical microscope for bleed-out or undissolved compound
Type: physicochemical
Conditions: compound at 0.3 wt % with respect to Cytop CTL-809M in perfluorotributylamine/1,1,1,3,3,3-hexafluoropropan-2-ol/Cytop CTL-809M=91/5/4 (parts by weight); film 1.5 μm on glass, dried
Description: To a mixed solution of perfluorotributylamine/1,1,1,3,3,3-hexafluoropropan-2-ol/Cytop CTL-809M (manufactured by Asahi Glass Co., Ltd.)=91/5/4 (parts by weight), was added the compound represented by formula (1) according to the invention (any of Compounds 1-1 to 1-8) or Comparative Compound C-1 or C-2 as shown below in an amount of 0.3 wt % with respect to the Cytop CTL-809M. Thereafter, the mixed solution was applied onto a glass substrate to a film thickness of 1.5 μm and dried.

Compound | Solubility
CC(C)(C)c1cc(CCC(=O)OCC(F)(F)C(F)(F)C(F)(F)C(F)(F)C(F)(F)C(F)(F)C(F)(F)C(F)(F)C(F)(F)F)cc(C(C)(C)C)c1O [Compound 1-1] | Compatible
CC(C)(C)c1cc(CCC(=O)OCC(O)CC(F)(F)C(F)(F)C(F)(F)C(F)(F)C(F)(F)C(F)(F)C(F)(F)C(F)(F)F)cc(C(C)(C)C)c1O (stereo not shown) [Compound 1-2] | Compatible
Cc1cc(CCC(=O)OCC(F)(F)C(F)(F)C(F)(F)C(F)(F)C(F)(F)C(F)(F)C(F)(F)C(F)(F)C(F)(F)F)cc(C(C)(C)C)c1O [Compound 1-3] | Compatible
CC(C)(C)c1cc(CCC(=O)OCC(F)(F)C(F)(F)C(F)(F)C(F)(F)C(F)(F)C(F)(F)C(F)(F)C(F)(F)F)cc(C(C)(C)C)c1O [Compound 1-4] | Compatible
CC(C)(C)c1cc(CCC(=O)OCCC(F)(F)C(F)(F)C(F)(F)C(F)(F)C(F)(F)C(F)(F)F)cc(C(C)(C)C)c1O [Compound 1-5] | Compatible
Cc1cc(CCC(=O)OCC(F)(F)C(F)(F)C(F)(F)C(F)(F)C(F)(F)C(F)(F)C(F)(F)C(F)(F)C(F)(F)F)cc(C)c1O [Compound 1-6] | Compatible
CC(C)(C)c1cc(CCC(=O)OC(CO)CC(F)(F)C(F)(F)C(F)(F)C(F)(F)C(F)(F)C(F)(F)F)cc(C(C)(C)C)c1O (stereo not shown) [Compound 1-7] | Compatible
Cc1cc(CCC(=O)OCC(F)(F)C(F)(F)C(F)(F)C(F)(F)C(F)(F)C(F)(F)C(F)(F)C(F)(F)C(F)(F)C(F)(F)F)cc(C)c1O [Compound 1-8] | Compatible
CCCCCCCCCCOC(=O)CCc1cc(C(C)(C)C)c(O)c(C(C)(C)C)c1 [Compound C-1, reference compound] | remained partially undissolved; also recorded: Remain partially
CC(C)(C)c1cc(CCC(=O)OCC(O)CC(F)(F)C(F)(F)C(F)(F)F)cc(C(C)(C)C)c1O (stereo not shown) [Compound C-2, reference compound] | bled out on the resin surface; also recorded: Bleed out (a compound which bleeds out is denoted by “Bleed out,”)
